“Also recorded” adds a separate entry of the source. {NH2} = C-terminal amide of the PNA; {F1} = fluorescein label

A word on the inhibition: it is the drop in the measured response relative to a control, in per cent.

Format in all cases: cell-based
Data set [1] concerns HeLa pLuc705 cells. Description: Luciferase splice correction assay. The settings on record: for luciferase activity / internalization upon PS-dA8[3+] (dAtaPS)-mediated delivery of PNA oligomers: PS-dA8[3+] 2.0 μM, compared with PS-dT8[3+]:10 complex, FIG. 16; for luciferase activity (splice correction) upon PS-dT8[3+] (dTtaPS)-assisted delivery of PNA oligomers: FIG. 12, 13, 15. The protocol:
The efficiency of PS-dT8[3+] in the cellular uptake of polyA-tailed PNA oligomers was assessed through the luciferase splice correction assay in which the mutated intron 2 of the human β-globin gene has been inserted within the coding sequence of a luciferase reporter gene (pLuc705). The activation of a cryptic splice site in this intron leads to a defective luciferase enzyme. In the presence of a PNA oligomer complementary to the aberrant splice site, correct splicing is restored and results in an active luciferase. A concentration-dependence of splice correction activity by PS-dT8[3+]-mediated internalization of the PNA oligomer 10 in HeLa pLuc705 cells is shown in FIG. 12.
(§1) Complex formation between PNA or PMO oligomers and dTtaPS or dAtaPS: Appropriate amounts of PNA or PMO oligomers were diluted in serum-free OptiMEM™ (20 μl). dTtaPS or dAtaPS was added to the oligomer solution to achieve a final concentration that is twice that of the oligomer. After 30 min incubation at 37° C., the PNA or PMO oligomer: dTtaPS or dAtaPS complexes were stored at 4° C. for 15 minutes or until used. Stock solutions (2×) of the complexes were made by adding OptiMEM™ to appropriate volumes.
Luciferase assay protocol: HeLa pLuc 705 cells were seeded in a 96-well plate (2×10^4 cells/well) and allowed to grow at 37° C. for 18 h in 10% FBS-DMEM. The culture medium of each well was then replaced with either fresh serum-free or 20% serum-containing OptiMEM™ (50 μl) for experiments intended to be performed in serum-free or in 10% serum-containing media. A 2× solution of PNA or PMO oligomer:dTtaPS or dAtaPS complexes (50 μl) was added to the cells in order to achieve pre-determined complex concentrations, as indicated in the Figures. After a 4-hour incubation at 37° C., 20% FBS in OptiMEM™ (100 μl was added to serum-free experiments and cells were incubated for an additional 18 h at 37° C. The media was then removed by suction and the cells were mixed with a cell lysis reagent (50 μl) and agitated at ambient temperature for 10 minutes. The cell lysate (30 μl) was placed in a white 96-well plate and Bright-Glo™ reagent (20 μl) was added. Luciferase activity was measured using a microplate reader. For each well, luminescence was integrated over a period of 1 sec and recorded as relative light units (RLU). Luminescence measurements were normalized to the amount of protein present in the test sample.
Appropriate amounts of PNA/PMO oligomers were diluted in OptiMEM™ (20 μL) to achieve the concentration of 1 μM or as indicated in the Figures. PS-dT8[3+] or PS-dAs[3+] was added to the above oligomer solutions. After a 30 min incubation at 37° C., the PNA/PMO oligomer:PS-dT8[3+] or PS-dA8[3+] complexes were removed and kept at 4° C. for 15 minutes or until used. Stock solutions of the complexes were made by adding OptiMEM™ to appropriate volumes.
Luciferase Assay: Prior to performing experiments, HeLa pLuc 705 cells were seeded in a 96-well plate (2×10^4 cells/well) and allowed to grow at 37° C. for 18 h in 10% FBS DMEM. The culture medium of each well was then replaced with either fresh 50 μL serum free or 20% serum-containing OptiMEM™ for experiments intended to be performed in serum free or in 10% serum-containing media. A 2× solution of the PNA/PMO oligomer:PS-dT8[3+] or PS-dAs[3+] complexes (50 μL) was added to the cells in order to achieve a pre-determined concentration as indicated in the figures. After a 4-hour incubation at 37° C., 20% FBS in OptiMEM (100 μL) was added to serum free experiments and cells were incubated for an additional 18 h at 37° C. The media was then removed by suction and the cells were mixed with a cell lysis reagent (50 μL) and agitated at ambient temperature over a period of 10 minutes. The cell lysate (30 μL) was placed in white 96-well plate and Bright-Glow™ reagent (20 μL) was added. Luciferase activity was measured using a microplate reader. […]

In data set [2] the test system is HEK 293, HeLa, HeLa pLuc705, MCF7 and SK—N—SH live cells. Description: Flow cytometry (FACS) analysis of cellular uptake of fluorescently-labeled PNA or PMO oligomers in live cells. Conditions: for PS-dT8[3+] (dTtaPS)-mediated delivery of fluoresceinated PMO oligomers: PMO oligomer 1 μM, PS-dT8[3+] 2 μM, all cell lines, FIG. 17; for PS-dT8[3+] (dTtaPS)-mediated cellular internalization of fluoresceinated PNA oligomers: in the presence of PS-dT8[3+], oligomer 1 μM, all cell lines under study, FIG. 11. The method, then:
as §1
Flow cytometry analysis of cellular uptake in live cells: The internalization of fluorescently-labeled PNA or PMO sequences (Table 1) in HEK 293, HeLa, MCF7 and SK—N—SH cells was assessed by flow cytometry. Cells were seeded in a 96-well plate (10^4 cells/well) and allowed to grow at 37° C. for 24 h in 10% FBS-MEM. The culture medium of each well was then replaced with fresh medium (100 μl) containing any of the fluorescently-labeled PNA or PMO sequences, the final concentration of which was 1 μM. After an incubation of 18 h at 37° C., the medium was removed from each well by suction and 0.25% Trypsin (50 μl) was added. Upon complete cell detachment, a solution (100 μl) of ice-cold 2% FBS in phosphate-buffered saline (PBS, pH 7.4) was added to each well. The cells were collected into tubes, to which was added 0.4% Trypan blue (50 μl) and 200 µM monensin (20 μl), and analyzed by fluorescence-activated cell sorting (FACS) using a BD FACScan™ flow cytometer. A total of 5000 events were counted and the results were reported as a percentage of the cells that have internalized the fluorescently-labeled oligomers.

The subject of data set [3] is HeLa pLuc 705 cells. Description: Endocytic pathway assays. The settings on record: dTtaPS-mediated uptake of PNA oligomer 10, chlorpromazine 30 μM, nystatin 50 μM, EIPA 1 mM. The protocol: Endocytic pathway assays: HeLa pLuc 705 cells were seeded in a 96-well plate and grown in 10% FBS-DMEM as described above. The cell culture was then pre-incubated for 30 min at 37° C. in the presence of chlorpromazine, nystatin or 5-(N-ethyl-N-isopropyl)amiloride (EIPA), the final concentration of which was 30 μM, 50 μM or 1 mM, respectively. A 2× solution of PNA oligomer 10:dTtaPS complex was added to the cells to provide an oligomer and dTtaPS final concentration of 1.0 μM and 2.0 μM, respectively. The cells were then incubated for an additional 30 min at 37° C., whereupon luciferase activity was measured as described above in the Luciferase assay protocol. Luminescence measurements were normalized to the amounts of protein present in the test samples and reported as percent luminescence remaining relative to that of the experiment performed in the absence of endocytic pathway inhibitors.

On to “PMO oligomer 24: commercial PMO, CCTCTTACCTCAGTTACA-AATAAA, SEQ ID NO. 18 (CCTCTTACCTCAGTTACAAATAAA; all phosphorodiamidate morpholino (PMO))”, for which, in data set [1] (PMO oligomer 1 μM, PS-dT8[3+] 2 μM, relative to PMO oligomer 21, FIG. 18, listed as 24), the “luciferase activity upon PS-dT8[3+] (dTtaPS)-assisted internalization of PMO oligomers” value is “did not significantly decrease; also recorded: did not significantly affect”.

As for “PNA oligomer 16: commercial PNA, H-CCTCTTACCTCAGTTACA-CCCCCC-NH2, SEQ ID NO. 10 (CCTCTTACCTCAGTTACACCCCCC; all peptide nucleic acid (PNA), 3' {NH2}; further chemistry not fully specified)”, the “luciferase activity / internalization upon PS-dA8[3+] (dAtaPS)-mediated delivery of PNA oligomers” value in data set [1] (listed as 16) is “failed to recognize and internalize”. Also, the “luciferase activity (splice correction) upon PS-dT8[3+] (dTtaPS)-assisted delivery of PNA oligomers” value in data set [1] (PS-dT8[3+] 2 μM, listed as 16) is on record as “did not result in significant production of luciferase activity; also recorded: did not lead to the production of luciferase activity”.

With “PNA oligomer 11: commercial PNA, negative control, H-GTGGCCGTTTACGTCGCC-AAAAAA-NH2, SEQ ID NO. 5 (GTGGCCGTTTACGTCGCCAAAAAA; all peptide nucleic acid (PNA); PNA with N-terminal H and C-terminal amide, further chemistry not fully specified)”, the “luciferase activity (splice correction) upon PS-dT8[3+] (dTtaPS)-assisted delivery of PNA oligomers” value in data set [1] (PS-dT8[3+] 2 μM, listed as 11) is listed as “failed, as expected for a negative control, to restore luciferase activity”. For the molecule “PNA oligomer 15: commercial PNA, H-CCTCTTACCTCAGTTACA-TTTTTT-NH2, SEQ ID NO. 9 (CCTCTTACCTCAGTTACATTTTTT; all peptide nucleic acid (PNA); PNA with N-terminal H and C-terminal amide, further chemistry not fully specified)”, the “luciferase activity / internalization upon PS-dA8[3+] (dAtaPS)-mediated delivery of PNA oligomers” value in data set [1] (listed as 15) was “about half the level of luciferase activity”. In addition, in data set [1] (PS-dT8[3+] 2 μM, listed as 15), the “luciferase activity (splice correction) upon PS-dT8[3+] (dTtaPS)-assisted delivery of PNA oligomers” value is “did not result in significant production of luciferase activity; also recorded: did not lead to the production of luciferase activity”. As for “PNA oligomer 12: commercial PNA, H-CCTCTTACCTCAGTTACA-NH2, SEQ ID NO. 6 (all peptide nucleic acid (PNA); PNA with N-terminal H and C-terminal amide, further chemistry not fully specified)”, the “luciferase activity (splice correction) upon PS-dT8[3+] (dTtaPS)-assisted delivery of PNA oligomers” value in data set [1] (PS-dT8[3+] 2 μM) is recorded as “did not restore luciferase activity”. Regarding “PMO oligomer 20: commercial PMO, CCTCTTACCTCAGTTACA-F1, SEQ ID NO. 14 (all phosphorodiamidate morpholino (PMO), 3' {F1})”, in data set [2], the “PS-dT8[3+] (dTtaPS)-mediated delivery of fluoresceinated PMO oligomers” value is given as “reduced to that of the medium”. Consider “PNA oligomer 8: commercial PNA, F1-GTGGCCGTTTACGTCGCC-AAAAAA-NH2, SEQ ID NO. 2 (GTGGCCGTTTACGTCGCCAAAAAA; PNA, F1 label, C-amide, chemistry not fully specified)”, for which the “PS-dT8[3+] (dTtaPS)-mediated cellular internalization of fluoresceinated PNA oligomers” value in data set [2] is “efficiently internalized”. Same read-out and setting: in the case of “PNA oligomer 9: commercial PNA, F1-CCTCTTACCTCAGTTACA-NH2, SEQ ID NO. 3 (all peptide nucleic acid (PNA), 5' {F1}; PNA with C-terminal amide, further chemistry not fully specified)” it was “not significantly internalized”. Take `C[C@@H]1[C@H](O)[C@@H](C)/C=C/C=C/CC/C=C/C=C/C=C/C=C/C(O[C@H]2O[C@H](C)[C@@H](O)[C@H](N)[C@@H]2O)CC2O[C@](O)(CC(O)C(O)CCC(O)CC(O)CC(O)CC(=O)O[C@H]1C)CC(O)C2C(=O)O` (stereo partly shown) [Nystatin, nystatin]: the “inhibition of luciferase production by endocytic pathway inhibitor” value in data set [3] is “did not inhibit”. Regarding `CN(C)CCCN1c2ccccc2Sc2ccc(Cl)cc21` [chlorpromazine], in data set [3] (Homo sapiens, HeLa, read-out: inhibition of luciferase production by endocytic pathway inhibitor), the inhibition at 30 µM was roughly 40%.

Take `CCN(c1nc(N)c(C(=O)N=C(N)N)nc1Cl)C(C)C` [EIPA, 5-(N-ethyl-N-isopropyl)amiloride]: the “inhibition of luciferase production by endocytic pathway inhibitor” value in data set [3] is given as roughly 95%.

For “PNA oligomer 17: commercial PNA, H-AAAAAA-CCTCTTACCTCAGTTACA-NH2, SEQ ID NO. 11 (AAAAAACCTCTTACCTCAGTTACA; all peptide nucleic acid (PNA); PNA with N-terminal H and C-terminal amide, further chemistry not fully specified)”, the “luciferase activity / internalization upon PS-dA8[3+] (dAtaPS)-mediated delivery of PNA oligomers” value in data set [1] (listed as 17) was “failed to recognize and internalize”. Besides, the “luciferase activity (splice correction) upon PS-dT8[3+] (dTtaPS)-assisted delivery of PNA oligomers” value in data set [1] (PS-dT8[3+] 2 μM) is “did not significantly affect”.

With “PMO oligomer 19: commercial PMO, GTGGCCGTTTACGTCGCC-AAAAAA-F1, SEQ ID NO. 13 (GTGGCCGTTTACGTCGCCAAAAAA; PMO, F1 label, chemistry not fully specified)”, the “PS-dT8[3+] (dTtaPS)-mediated delivery of fluoresceinated PMO oligomers” value in data set [2] (listed as 19) was “confirmed the dTtaPS-assisted delivery”.

Source of the values: patent US10087465B2, “Trans-acting elements for intracellular delivery of nucleic acid sequences” (The United States of America, as Represented by the …, priority 2014, dated 2018).
